Test results taken from patent US10188108B2, “Fused bicyclic heterocycle derivatives as pesticides” (BAYER CROPSCIENCE AKTIENGESELLSCHAFT, priority 2015, dated 2019).
Read-outs that look alike come from different tables or passages of the source.

Legend:
[1] = tested on: Phaedon cochleariae; experiment: Phaedon cochleariae - spray test; assay type: in vivo; settings: 500 g/ha, after 7 days, larvae on Chinese cabbage leaf discs
Experimental: (§1) • Solvent: 78.0 parts by weight of acetone • 1.5 parts by weight of dimethylformamide • Emulsifier: alkylaryl polyglycol ether
(§2) To produce a suitable preparation of active compound, 1 part by weight of active compound is dissolved using the stated parts by weight of solvent and made up with water containing an emulsifier concentration of 1000 ppm until the desired concentration is attained. To produce further test concentrations, the preparation is diluted with emulsifier-containing water.
After 7 days, the efficacy in % is determined. 100% means that all the beetle larvae have been killed; 0% means that no beetle larvae have been killed.

[2] = tested on: Spodoptera frugiperda; experiment: Spodoptera frugiperda - spray test; assay type: in vivo; settings: 500 g/ha, after 7 days, caterpillars on maize leaf discs
Experimental: as §1, §2
Leaf discs of maize (Zea mays) are sprayed with an active compound preparation of the desired concentration and, after drying, populated with caterpillars of the armyworm (Spodoptera frugiperda).
After 7 days, the efficacy in % is determined. 100% means that all the caterpillars have been killed; 0% means that no caterpillars have been killed.

[3] = tested on: Myzus persicae; experiment: Myzus persicae - spray test (Chinese cabbage leaf discs); assay type: in vivo; settings: 500 g/ha, after 5-6 days
Experimental: • Solvent: 78 parts by weight of acetone • 1.5 parts by weight of dimethylformamide • Emulsifier: alkylaryl polyglycol ether
as §2
Discs of Chinese cabbage leaves (Brassica pekinensis) infested by all stages of the green peach aphid (Myzus persicae) are sprayed with an active compound preparation of the desired concentration.
After 5-6 days, the efficacy in % is determined. 100% means that all the aphids have been killed; 0% means that no aphids have been killed.

[4] = log P by HPLC on a reversed-phase column (C 18), EEC Directive 79/831 Annex V.A8; assay type: physicochemical; settings: for LOGP_NEUTRAL: pH 7.8, 0.001 molar aqueous ammonium hydrogencarbonate/acetonitrile; for chromatographic logP: reversed-phase HPLC column (C 18)
Experimental: The log P values are measured according to EEC Directive 79/831 Annex V.A8 by HPLC (high-performance liquid chromatography) on a reversed-phase column (C 18). Temperature: 55° C.
The LC-MS determination in the acidic range is effected at pH 2.7 using 0.1% aqueous formic acid and acetonitrile (contains 0.1% formic acid) as eluents; linear gradient from 10% acetonitrile to 95% acetonitrile. Called log P (HCOOH) in the table.
LC-MS determination in the neutral range is effected at pH 7.8 with 0.001 molar aqueous ammonium hydrogencarbonate solution and acetonitrile as eluents; linear gradient from 10% acetonitrile to 95% acetonitrile. Called log P (neutral) in the table.
Calibration is carried out using unbranched alkan-2-ones (having 3 to 16 carbon atoms) with known log P values (log P values determined on the basis of the retention times by linear interpolation between two successive alkanones).

[5] = tested on: Ctenocephalides felis; experiment: Ctenocephalides felis - oral test; assay type: in vivo; settings: 100 ppm in citrated cattle blood, after 2 days, adult cat fleas
Experimental: • Solvent: dimethyl sulphoxide To produce a suitable preparation of active compound, 10 mg of active compound are mixed with 0.5 ml of dimethyl sulphoxide. Dilution with citrated cattle blood gives the desired concentration. About 20 unfed adult cat fleas (Ctenocephalides felis) are placed into a chamber which is closed at the top and bottom with gauze. A metal cylinder whose bottom end is closed with parafilm is placed onto the chamber. The cylinder contains the blood/active compound preparation, which can be imbibed by the fleas through the parafilm membrane. After 2 days, the kill in % is determined. 100% means that all of the fleas have been killed; 0% means that none of the fleas have been killed.

[6] = tested on: Ctenocephalides felis; experiment: Ctenocephalides felis - in vitro contact tests with adult cat fleas; assay type: in vivo; settings: 5 μg/cm^2 (=500 g/ha), after 48 h, adult cat fleas dead or moribund
Experimental: For the coating of the test tubes, 9 mg of active compound are first dissolved in 1 ml of acetone p.a. and then diluted to the desired concentration with acetone p.a. 250 μl of the solution are distributed homogeneously on the inner walls and the base of a 25 ml test tube by turning and rocking on an orbital shaker (rocking rotation at 30 rpm for 2 h). With 900 ppm active compound solution and internal surface 44.7 cm^2, given homogeneous distribution, an area-based dose of 5 μg/cm^2 is achieved.
After the solvent has evaporated off, the tubes are populated with 5-10 adult cat fleas (Ctenocephalides felis), sealed with a perforated plastic lid and incubated in a horizontal position at room temperature and ambient humidity. After 48 h, efficacy is determined. To this end, the test tubes are stood upright and the fleas are knocked to the base of the tube. Fleas which remain motionless at the base or move in an uncoordinated manner are considered to be dead or moribund.
100% efficacy means that all the fleas were dead or moribund. 0% efficacy means that no fleas were harmed.

[7] = tested on: Musca domestica; experiment: Musca domestica test; assay type: in vivo; settings: after 2 days, adult houseflies
Experimental: • Solvent: dimethyl sulphoxide To produce a suitable preparation of active compound, 10 mg of active compound are mixed with 0.5 ml of dimethyl sulphoxide, and the concentrate is diluted with water to the desired concentration. Vessels containing a sponge treated with sugar solution and the active compound preparation of the desired concentration are populated with 10 adult houseflies (Musca domestica). After 2 days, the kill in % is determined. 100% means that all of the flies have been killed; 0% means that none of the flies have been killed.

[8] = tested on: Lucilia cuprina; experiment: Lucilia cuprina test; assay type: in vivo; settings: 100 ppm, after 2 days, L1 larvae
Experimental: • Solvent: dimethyl sulphoxide To produce a suitable preparation of active compound, 10 mg of active compound are mixed with 0.5 ml of dimethyl sulphoxide, and the concentrate is diluted with water to the desired concentration. About 20 L1 larvae of the Australian sheep blowfly (Lucilia cuprina) are transferred into a test vessel containing minced horsemeat and the active compound preparation of the desired concentration. After 2 days, the kill in % is determined. 100% means that all the larvae have been killed; 0% means that no larvae have been killed.

[9] = acidic range, pH 2.7, 0.1% aqueous formic acid/acetonitrile, 55° C., read-out: LOGP_HCOOH
[10] = neutral range, pH 7.8, value in preparation example text, read-out: log P (neutral)
[11] = acidic range, pH 2.7, 0.1% aqueous formic acid/acetonitrile, 55° C.

SMILES	efficacy [1]	efficacy [2]	efficacy [3]	LOGP_NEUTRAL ([4]; neutral range, 55° C.)	chromatographic logP [4, 9]	chromatographic logP [4, 10]	LOGP_HCOOH [4, 11]	efficacy (kill) [5]	efficacy [6]	efficacy (kill) ([7]; 20 ppm)	efficacy (kill) [8]	efficacy (kill) ([7]; 4 ppm)
CCS(=O)(=O)c1c(-c2nc3cc4c(cc3n2C)OC(F)(F)O4)nc2ccccn12 [Example I-41, 6-[3-(Ethylsulphonyl)imidazo[1,2-a]pyridin-2-yl]-2,2-difluoro-5-methyl-5H-[1,3]dioxolo[4,5-f]benzimidazole]	100%	83%	90%	2.62	2.59	2.62						
CC[S+]([O-])c1c(-c2nc3cc(C(F)(F)F)ncc3n2C)nc2cccc(C(F)(F)F)n12 (stereo not drawn) [Example I-22]	100%		90%	2.30			2.30					
CCS(=O)(=O)c1c(-c2nc3cc(C(F)(F)F)ncc3n2C)nc2ccc(C(F)(F)F)cn12 [Example I-6]	100%	100%	90%	3.06			3.09	100%	100%	90%	100%	
CCS(=O)(=O)c1c(-c2nc3cc(C(F)(F)F)ncc3n2C)nc2ccc(Cl)cn12 [Example I-4]		100%	90%	2.61			2.67	90%	100%		100%	80%
CC[S+]([O-])c1c(-c2nc3cc(C(F)(F)F)ncc3n2C)nc2ccc(Cl)cn12 (stereo not drawn) [Example I-7]		100%	90%	2.83			2.93					
CC[S+]([O-])c1c(-c2nc3cc(C(F)(F)F)ccc3n2C)nc2ccccn12 (stereo not drawn) [Example I-11]	100%	100%	90%	2.85			2.92					
CCS(=O)(=O)c1c(-c2nc3cc(C(F)(F)F)cnc3n2C)nc2ccc(C)cn12 [Example I-53]		100%	100%	2.78			2.84					
CCSc1c(-c2nc3cc(C(F)(F)F)ncc3n2C)nc2ccccn12 [Example I-2, 2-(3-Ethylsulphanylimidazo[1,2-a]pyridin-2-yl)-3-methyl-6-(trifluoromethyl)imidazo[4,5-c]pyridine]			90%	2.75	2.84	2.75						
CCS(=O)(=O)c1c(-c2nc3cc(C(F)(F)F)ncc3n2C)nc2cccc(C(F)(F)F)n12 [Example I-21]	100%	100%	100%	2.66			2.69					
CCS(=O)(=O)c1c(-c2nc3cc(C(F)(F)F)ncc3n2C)nc2cc(Cl)ccn12 [Example I-23]	100%	100%		2.64			2.66		100%			
CCS(=O)(=O)c1c(-c2nc3cc(C(F)(F)F)ncc3n2C)nc2cc(C(F)(F)F)ccn12 [Example I-17]	100%	100%	100%	2.98			3.00	100%	100%		100%	80%
CCS(=O)(=O)c1c(-c2nc3cc(C(F)(F)F)ccc3n2C)nc2cc(C)ccn12 [Example I-33]		83%					3.01		100%			
CCS(=O)(=O)c1c(-c2nc3cc(C(F)(F)F)ncc3n2C)nc2ccc(OC)cn12 [Example I-54]		100%	90%	2.37			2.41					
CCS(=O)(=O)c1c(-c2nc3cc(C(F)(F)F)ncc3n2C)nc2ccc(C)cn12 [Example I-48]		100%	90%	2.36			2.43					
CCS(=O)(=O)c1c(-c2nc3cc(C(F)(F)F)ncc3n2C)nc2c(Cl)cccn12 [Example I-19]	100%	100%	90%	2.50			2.56					
CCS(=O)(=O)c1c(-c2nc3cc(C(F)(F)F)ncc3n2C)nc2ccccn12 [Example I-1, 2-(3-Ethylsulphonylimidazo[1,2-a]pyridin-2-yl)-3-methyl-6-(trifluoromethyl)imidazo[4,5-c]pyridine]	83%	100%	90%	2.05		2.07	2.08	98%	100%		100%	85%
CCS(=O)(=O)c1c(-c2nc3cc(C(F)(F)F)ccc3n2C)nc2cccc(C)n12 [Example I-46]	83%		90%				2.73					
CCSc1c(-c2nc3cc(C(F)(F)F)ncc3n2C)nc2c(C(F)(F)F)cccn12 [Example I-13]	100%	100%		3.71			1.40					
CCS(=O)(=O)c1c(-c2nc3cc(C(F)(F)F)ccc3o2)nc2ccccn12 [Example I-12]	83%	83%		2.94			2.92					
CCS(=O)(=O)c1cccn2c(S(=O)(=O)CC)c(-c3nc4cc(C(F)(F)F)ncc4n3C)nc12 [Example I-39]	100%	100%		2.29			2.30					
CCS(=O)(=O)c1c(-c2nc3cc(C(F)(F)F)ccc3n2C)nc2cc(C(F)(F)F)ccn12 [Example I-34]	100%	100%					3.72		100%			
CC[S+]([O-])c1c(-c2nc3cc(C(F)(F)F)ncc3n2C)nc2ccc(C(F)(F)F)cn12 (stereo not drawn) [Example I-8]	100%	100%					3.25					
